Some test systems named below: UO-31; RXF 393; OVCAR-5; KM-20L2; HCT-116; OVCAR-3; NCI-H460; DMS-273; TK-10; M14; HOP-92; SW-620; M19-MEL; 786-0; A498; KM12; RPMI-8226; SR; NCI/ADR-RES; BT-549.
Holding throughout (test): NCI anticancer screen, dose series, 48 h

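In this assay, cells in 96-well plates receive the compound at five concentrations for 48 hours. Endpoints are linearly interpolated between the surrounding concentrations. At the GI50, growth is halved.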 The source made the active and inactive calls. Cut-off read from the data, not from the text of the source: active = GI50 up to about 1.1 µM and inactive = higher.

As to `COc1cc(C2C3=C(CCC3=O)Oc3cc4c(cc32)OCO4)cc(OC)c1OC` (configuration not stated), the GI50 in the experiment with UO-31 is 0.321 µM (active); in the experiment on RXF 393, 0.54 µM (active); with OVCAR-5 it was 0.458 µM (active); in the experiment with KM-20L2, 0.238 µM (active); in the experiment with HCT-116, 0.391 µM (active); with OVCAR-3 it was 0.136 µM (active). Moreover, the GI50 in the experiment with NCI-H460 was 0.358 µM (active); with DMS-273, 0.158 µM (active); in the experiment with TK-10, 0.417 µM (active); in the experiment on M14, 0.349 µM (active); in the experiment with HOP-92, 0.036 µM (active); in the experiment on SW-620 it was 0.285 µM (active). In addition, the GI50 in the experiment with M19-MEL is 0.412 µM (active).

Turning to `Cc1cc(N(CCC#N)CCC#N)ccc1/N=N/c1cccc(C(=O)O)c1`, the GI50 in the experiment with UO-31, in the experiment with 786-0, in the experiment with RXF 393, in the experiment on A498, in the experiment on KM12 and with OVCAR-5 was > 100 µM (inactive) throughout. Besides, the GI50 in the experiment with OVCAR-3 was 56 µM (inactive); in the experiment with DMS-273 it was > 100 µM (inactive); in the experiment on TK-10, > 100 µM (inactive); with M14 it was > 100 µM (inactive); in the experiment with SW-620, > 100 µM (inactive); in the experiment with M19-MEL, > 100 µM (inactive).

As for `Cc1ccc(C(=O)CC2=Nc3nnc(CCCCCCCc4nnc5n4C(=O)C(CC(=O)c4ccc(C)cc4)=N5)n3C2=O)cc1`, the GI50 in the experiment with UO-31, in the experiment on 786-0, in the experiment with RXF 393, with RPMI-8226, with KM12 and in the experiment with OVCAR-5 was > 100 µM (inactive) throughout. Besides, the GI50 in the experiment on KM-20L2, in the experiment with HCT-116, in the experiment on OVCAR-3, in the experiment with NCI-H460, in the experiment on TK-10 and with M14 was > 100 µM (inactive) throughout. Moreover, the GI50 in the experiment with SR, with SW-620 and with M19-MEL was > 100 µM (inactive) throughout.

`O=C(c1ccc(O)cc1O)C1C(c2ccc(O)cc2)OC(c2ccc(O)cc2)C1C(=O)c1ccc(O)cc1O` (configuration not stated): the GI50 in the experiment on UO-31 was 18.7 µM (inactive); in the experiment on 786-0, 5.38 µM (inactive); with RXF 393 it was 25.5 µM (inactive); with KM12, 21.9 µM (inactive); in the experiment on OVCAR-5, 12.6 µM (inactive); in the experiment on KM-20L2, 71 µM (inactive). Further, the GI50 is 18.7 µM (inactive) in the experiment with OVCAR-3; 42.8 µM (inactive) with NCI-H460; 16 µM (inactive) in the experiment on DMS-273; 14.7 µM (inactive) in the experiment on TK-10; 18 µM (inactive) in the experiment with M14; 30.6 µM (inactive) with SW-620. Besides, in the experiment with M19-MEL, the GI50 is 19.6 µM (inactive).

On to `COC(=O)C(Cc1nc2ccccc2nc1O)C(=O)C(=O)Nc1ccc(F)cc1` (configuration not stated), for which the GI50 with UO-31 was > 100 µM (inactive); in the experiment on 786-0, 25.4 µM (inactive); in the experiment on RXF 393, 23.4 µM (inactive); in the experiment on KM12, 41 µM (inactive); in the experiment with KM-20L2, > 100 µM (inactive); with HCT-116, 41.2 µM (inactive). Besides, the GI50 in the experiment on OVCAR-3 is 40.6 µM (inactive); in the experiment with NCI-H460, > 100 µM (inactive); with DMS-273, 48.1 µM (inactive); in the experiment with TK-10 it was > 100 µM (inactive); in the experiment with M14, 74.8 µM (inactive); in the experiment on SR, 33 µM (inactive). In addition, the figures for the GI50 in the experiment with HOP-92, in the experiment on SW-620 and with M19-MEL were 20.8 µM (inactive), 21.9 µM (inactive) and 46.7 µM (inactive), respectively.

In the case of `O=C(c1ccccc1)[C@H]1Nc2ccc(Cl)cc2[C@H]2OCCC[C@@H]12`, the GI50 was 15.9 µM (inactive) in the experiment with UO-31; 17.3 µM (inactive) with RXF 393; 19.3 µM (inactive) in the experiment with RPMI-8226; 19 µM (inactive) in the experiment on KM12; 15.9 µM (inactive) in the experiment on OVCAR-5; 16.7 µM (inactive) in the experiment with KM-20L2. The GI50 is 16.3 µM (inactive) in the experiment on HCT-116; 14.9 µM (inactive) in the experiment on OVCAR-3; 18 µM (inactive) in the experiment on NCI-H460; 19.3 µM (inactive) in the experiment with DMS-273; 28.5 µM (inactive) in the experiment with TK-10; 17.5 µM (inactive) in the experiment with M14. For the same compound, the GI50 in the experiment on SR is 26.1 µM (inactive); with SW-620, 17.3 µM (inactive); in the experiment with M19-MEL it was 23 µM (inactive).

Take `CCOC(=O)CC(=O)ON(C)C(=O)Cc1ccccc1`: the GI50 with UO-31, with 786-0, in the experiment with A498, in the experiment on RPMI-8226, in the experiment with KM12 and in the experiment on OVCAR-5 was > 100 µM (inactive) in each case. Also, the GI50 with KM-20L2 is > 100 µM (inactive); in the experiment with HCT-116, > 100 µM (inactive); with OVCAR-3 it was > 100 µM (inactive); in the experiment with NCI-H460 it was > 100 µM (inactive); in the experiment with TK-10, > 10 µM (inactive); in the experiment with M14, > 100 µM (inactive). The GI50 with SR, in the experiment on SW-620 and in the experiment on M19-MEL was > 100 µM (inactive) in each case.

Regarding `Cc1nc2ccc(NCCN(C)C)c3c(=O)c4ccccc4n1c23`, the GI50 is 2.13 µM (inactive) with UO-31; 1.68 µM (inactive) in the experiment on 786-0; 10.5 µM (inactive) in the experiment with RXF 393; 3.91 µM (inactive) with A498; 2.04 µM (inactive) with RPMI-8226; 2.21 µM (inactive) with KM12. Also, the GI50 is 1.06 µM (active) in the experiment on NCI/ADR-RES; 4.9 µM (inactive) in the experiment with OVCAR-5; 1.99 µM (inactive) in the experiment on KM-20L2; 0.851 µM (active) in the experiment on HCT-116; 5 µM (inactive) with OVCAR-3; 0.736 µM (active) with NCI-H460. The GI50 is 10.5 µM (inactive) with BT-549; 4.08 µM (inactive) in the experiment with TK-10; 4.03 µM (inactive) with M14; 0.439 µM (active) in the experiment with SR; 2.25 µM (inactive) in the experiment with HOP-92; 0.601 µM (active) in the experiment on SW-620. Besides, in the experiment on M19-MEL, the GI50 is 5.9 µM (inactive).

With `C=C1C(=O)O[C@@H]2C[C@]3(C)[C@@H](C[C@H]12)[C@](C)(O)CC[C@@H]3O`, the GI50 in the experiment with UO-31 was > 100 µM (inactive); in the experiment with 786-0, 39.4 µM (inactive); with RPMI-8226 it was 52.7 µM (inactive); with KM12, 37.8 µM (inactive); with OVCAR-5 it was > 100 µM (inactive); with KM-20L2, 38.9 µM (inactive). For the same compound, the GI50 was 36 µM (inactive) in the experiment on HCT-116; 37.9 µM (inactive) in the experiment on OVCAR-3; 23.7 µM (inactive) with NCI-H460; 52.8 µM (inactive) in the experiment on DMS-273; 26.9 µM (inactive) with TK-10; 31.5 µM (inactive) with M14. The GI50 was 81.3 µM (inactive) in the experiment with HOP-92, 45.9 µM (inactive) in the experiment with SW-620 and 43.9 µM (inactive) with M19-MEL.

As to `COc1ccc(/C=C/C(=N\NC(=O)c2ccccc2)c2sc(Nc3ccc([N+](=O)[O-])cc3)nc2C)cc1OC`, the GI50 in the experiment on UO-31 was 15.6 µM (inactive); in the experiment on 786-0 it was 10.5 µM (inactive); in the experiment with RXF 393 it was 12.9 µM (inactive); in the experiment on KM12, 7.73 µM (inactive); with OVCAR-5 it was 27.7 µM (inactive); in the experiment on KM-20L2, 8.67 µM (inactive). The GI50 was 7.31 µM (inactive) in the experiment with HCT-116; 23.3 µM (inactive) in the experiment with OVCAR-3; 16.5 µM (inactive) with NCI-H460; 12.5 µM (inactive) in the experiment with DMS-273; 29.3 µM (inactive) in the experiment with TK-10; 14.1 µM (inactive) in the experiment with M14. Moreover, the GI50 with SR was 5.18 µM (inactive); in the experiment on HOP-92, < 0.01 µM (active); with SW-620, 16 µM (inactive); with M19-MEL, 12.6 µM (inactive).

As for `Cn1c(=O)n(CC2CS2)c2ccccc21` (configuration not stated), the GI50 in the experiment on UO-31, in the experiment on RXF 393, in the experiment with RPMI-8226, in the experiment on KM12, with OVCAR-5 and in the experiment with KM-20L2 was > 100 µM (inactive) in each case. The GI50 in the experiment on HCT-116, in the experiment on OVCAR-3, in the experiment on NCI-H460, in the experiment with DMS-273, in the experiment on TK-10 and with M14 was > 100 µM (inactive) throughout. Also, the GI50 is 99.3 µM (inactive) in the experiment with SR, 68.4 µM (inactive) in the experiment with HOP-92, > 100 µM (inactive) in the experiment on SW-620 and > 100 µM (inactive) with M19-MEL.

As to `COc1ccc(/C(Cl)=C(\CN(C)C)c2ccc(OC)c(OC)c2)cc1OC.[B]`, the GI50 with UO-31 is > 100 µM (inactive); in the experiment on 786-0, 15.9 µM (inactive); with RXF 393, 15.7 µM (inactive); with A498, 33.9 µM (inactive); in the experiment with RPMI-8226 it was > 100 µM (inactive); in the experiment with KM12 it was > 100 µM (inactive). For the same compound, the GI50 with OVCAR-5 was > 100 µM (inactive); with KM-20L2 it was > 100 µM (inactive); in the experiment on HCT-116, 38.8 µM (inactive); in the experiment with NCI-H460 it was > 100 µM (inactive); in the experiment on DMS-273 it was 2.34 µM (inactive); in the experiment with TK-10 it was 13.7 µM (inactive). The GI50 in the experiment with M14 was > 100 µM (inactive); in the experiment with SR, > 100 µM (inactive); in the experiment on HOP-92, 2.22 µM (inactive); in the experiment with SW-620, > 100 µM (inactive).

`N#Cc1c(C#N)c(SSc2c(C#N)c(C#N)c(N)n2-c2ccc(F)cc2)n(-c2ccc(F)cc2)c1N`: the GI50 in the experiment on UO-31 was 2.06 µM (inactive); with 786-0 it was 1.79 µM (inactive); with RXF 393 it was 3.01 µM (inactive); in the experiment with A498, 8.11 µM (inactive); with RPMI-8226, 2.37 µM (inactive); in the experiment on KM12, 23.2 µM (inactive). Moreover, the GI50 in the experiment on NCI/ADR-RES was 24.3 µM (inactive); with OVCAR-5, 17.1 µM (inactive); in the experiment with HCT-116, 1.9 µM (inactive); in the experiment with OVCAR-3, 2.66 µM (inactive); in the experiment on NCI-H460 it was 20.2 µM (inactive); with BT-549, 2.88 µM (inactive). The GI50 in the experiment on TK-10 is 3.9 µM (inactive); in the experiment on M14, 4.8 µM (inactive); in the experiment with SR, 0.59 µM (active); in the experiment with HOP-92, 2.96 µM (inactive); in the experiment with SW-620, 2.25 µM (inactive).

The record behind these values is ChEMBL document CHEMBL1201862, “PubChem BioAssay data set” (2004).
